Test results from patent US7732200B2, “Materials and methods for nerve grafting, selection of nerve grafts, and in vitro nerve tissue culture” (University of Florida Research Foundation, Inc., priority 2001, dated 2010).

Key:
[1] = tested on: Schwann cell cultures; test: Treatment of isolated Schwann cell cultures; type: cell-based
[2] = tested on: MMP gelatinolytic activity; test: In situ zymography of cultured nerve explants; type: biochemical, rat; details: nerves cultured 2 days, 2% serum, in the presence of GM6001
Experimental: In situ zymography for nerve predegeneration experiments. Cryosections (10 μm) of unfixed normal and cultured nerves were mounted on slides and overlaid with reaction buffer (50 mM Tris-HCl, 150 mM NaCl, 5 mM CaCl2, 0.2 mM sodium azide, pH 7.6) containing 20 μg/ml of intramolecularly quenched, fluorescein-labeled gelatin substrate (MOLECULAR PROBES INC., Eugene, Oreg.) (Oh et al., 1999). In the control condition, the MMP inhibitor EDTA (30 mM) was included in the reaction buffer. After incubation for 24 h at 37° C., the sections were rinsed with PBS and fixed with 4% paraformaldehyde in phosphate buffer. The sections were rinsed with water and mounted using Citifluor. Fluorescein-gelatin peptides generated by gelatinolytic activity in the tissue sections were observed and photographed by epifluorescence microscopy.
The activity of MMPs is regulated by gene transcription, proenzyme activation and by the action of tissue inhibitors of metalloproteinases. The net gelatinolytic activity in nerve segments by in situ zymography was examined. Tissue sections were overlaid with quenched, fluorescein-gelatin, which is converted to fluorescent peptides by gelatinolytic activity within tissues. Constitutive gelatinolytic activity was detected in normal nerve mostly associated with Schwann cells aligned along the endoneurial basal lamina (as shown in FIGS. 17A and 17B). […]

[3] = tested on: nerve segments; test: Dissociation culture (squash preparations) of cultured nerve segments; type: cell-based, rat; details: nerves cultured 2 days, 2% serum, with GM6001

CNC(=O)[C@H](Cc1c[nH]c2ccccc12)NC(=O)[C@@H](CC(=O)NO)CC(C)C [GM6001]
toxicity to isolated Schwann cell cultures [1]: very low toxicity | gelatinolytic activity in nerve explants [2]: nearly undetectable | cell viability of nerve segments (cell outgrowth) [3]: no loss of cell viability
